Data taken from ChEMBL document CHEMBL2203023, “Synopsis of some recent tactical application of bioisosteres in drug design” (J Med Chem, 2011).

Experiments:
[1] = biological target: T1, Dolichol-phosphate-mannose synthase (Trypanosoma brucei brucei) (UniProt Q5QQ41); conditions: 1 mM
T1 sequence (whole entry): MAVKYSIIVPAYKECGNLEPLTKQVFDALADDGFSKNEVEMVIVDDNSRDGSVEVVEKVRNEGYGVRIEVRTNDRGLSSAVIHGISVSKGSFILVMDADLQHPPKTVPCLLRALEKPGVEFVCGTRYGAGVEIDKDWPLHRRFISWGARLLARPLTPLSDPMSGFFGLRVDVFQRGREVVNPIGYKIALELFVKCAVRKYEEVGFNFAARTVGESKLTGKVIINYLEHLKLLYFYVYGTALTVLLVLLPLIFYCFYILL

Sequence of 4-aminobutyrate aminotransferase, mitochondrial (Homo sapiens), P80404 (P80404 whole entry): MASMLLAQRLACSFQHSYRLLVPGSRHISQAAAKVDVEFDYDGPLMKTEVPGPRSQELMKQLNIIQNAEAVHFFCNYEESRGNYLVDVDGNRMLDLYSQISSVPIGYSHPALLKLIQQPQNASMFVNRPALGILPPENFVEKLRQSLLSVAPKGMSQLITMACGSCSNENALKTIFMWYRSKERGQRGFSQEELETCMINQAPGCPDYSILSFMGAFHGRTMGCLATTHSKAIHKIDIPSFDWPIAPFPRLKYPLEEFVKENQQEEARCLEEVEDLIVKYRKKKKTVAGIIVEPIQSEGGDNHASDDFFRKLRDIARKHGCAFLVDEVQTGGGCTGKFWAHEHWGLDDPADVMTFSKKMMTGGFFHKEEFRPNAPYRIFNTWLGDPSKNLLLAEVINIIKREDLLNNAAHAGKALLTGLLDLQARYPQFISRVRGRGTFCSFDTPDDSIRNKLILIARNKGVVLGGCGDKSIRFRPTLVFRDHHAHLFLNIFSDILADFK

inhibition [1] [%]	Compound	Km (NCCCC(=O)O) [µM]
	4-aminobutyrate aminotransferase, mitochondrial (Homo sapiens), P80404	2500
8.5	Nc1nc2c(ncn2[C@@H]2O[C@H](COP(=O)(O)OP(=O)(O)O)[C@@H](O)[C@H]2O)c(=O)[nH]1	
64	Nc1nc2c(ncn2[C@@H]2O[C@H](CNc3c(NCc4ccccc4C(=O)O)c(=O)c3=O)[C@@H](O)[C@H]2O)c(=O)[nH]1	
